From ChEMBL document CHEMBL3853308, “Condensation of Macrocyclic Polyketides Produced by Penicillium sp. DRF2 with Mercaptopyruvate Represents a New Fungal Detoxification Pathway” (J Nat Prod, 2016)

What was measured:
[1] = Cytotoxicity against human MCF10A cells at 7.8 to 1000 uM after 24 hrs by XTT assay; assay type: toxicity, cell-based; conditions: mcf-10a
[2] = Cytotoxicity against human A549 cells after 24 hrs by XTT assay; assay type: functional, cell-based; conditions: A549, 24 h
[3] = Cytotoxicity against human HeLa cells after 24 hrs by XTT assay; assay type: functional, cell-based
[4] = Cytotoxicity against human MCF7 cells after 24 hrs by XTT assay; conditions: MCF7, 24 h

Row | Structure (SMILES) | Activity [1] | IC50 [2] [nM] | IC50 [3] [nM] | IC50 [4] [nM]
1 | COC(=O)[C@@]1(O)CS[C@H]2CCC[C@H](C)OC(=O)Cc3cc(O)cc(O)c3C(=O)[C@@H]21 | Non-Toxic |  |  | 
2 | C[C@H]1CCC(=O)/C=C/C(=O)c2c(O)cc(O)cc2CC(=O)O1 | Non-Toxic |  |  | 
3 | C[C@H]1CCC[C@@H]2SC[C@](O)(C(=O)O)[C@H]2C(=O)c2c(O)cc(O)cc2CC(=O)O1 | Non-Toxic |  |  | 
4 | COc1cccc2c1C(=O)c1c(O)c3c(c(O)c1C2=O)C[C@@](O)(C(=O)CO)C[C@@H]3O[C@H]1C[C@H](N)[C@H](O)[C@H](C)O1 [DOXORUBICIN] |  | 190 | 140 | 120
5 | C[C@H]1CCC[C@H]2O[C@H]2C(=O)c2c(O)cc(O)cc2CC(=O)O1 | Non-Toxic |  |  | 
